The text below walks through data of publication PMC6627374, “Effects of the Pentapeptide P33 on Memory and Synaptic Plasticity in APP/PS1 Transgenic Mice: A Novel Mechanism Presenting the Protein Fe65 as a Target” (International Journal of Molecular Sciences, 2019).

The target in the assay is T1, Fe65-WW domain (WW domain of Fe65) (Homo sapiens, UniProt O00213).
T1 construct: made in house; host or cells: chemical solid-phase peptide synthesis (Fmoc, Rink Amide AM resin); no expression host
T1 sequence (O00213 253-285 limits assumed): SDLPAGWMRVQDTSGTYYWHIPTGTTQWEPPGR
Briefly: ITC binding to Fe65-WW. Details: species or system human and mouse (WW domain identical). As to conditions: 310 K, PBS pH 7.4, Fe65-WW 83.5 μM in cell, PPPPP 1.056 mM in syringe (control). As to the method:
Synthesis of acetyl-Fe65-WW, acetyl-Pin1-WW, and the control PPPPP (structures involved in Figure 2) was carried out on a Rink Amide AM (0.3 mmol∙g^−1) resin using Fmoc chemistry and activation with HATU in the presence of DIPEA. Cleavage was achieved by a treatment with TFA/H2O/triisopropylsilane/1,4-dithio-DL-threitol/phenol (90:5:3:1:1) at room temperature (RT). TFA was removed in vacuo, the peptides were then precipitated using cold, dry diethyl-ether, dissolved in ACN/H2O and lyophilized.
Isothermal titrations were performed using a Microcal VP-ITC (Malvern Instruments, Malvern, UK) microcalorimeter. Binding experiments were carried out in degassed phosphate-buffered saline (PBS) at pH 7.4. The concentrations of Fe65-WW and Pin1-WW were normalized for the peptide contents. In one titration experiment, 10-μL portions of the ligand-containing solution (P33 or PPPPP) were injected from a computer-controlled 300-μL microsyringe at intervals of 300 s into the solution of the WW domain (Fe65-WW or Pin1-WW), dissolved in the same buffer as for the ligand. The rev of the microsyringe was set to 307 rpm. Measurements were repeated twice at 310 K. The starting concentrations of Fe65-WW and Pin1-WW in the cell were 83.5 and 81.4 μM, respectively, and the concentrations of the stock solutions containing P33 or PPPPP in the syringe were 1.006 and 1.056 mM, respectively. Control experiments were performed by injecting P33 or PPPPP into the cell containing plain buffer without the WW domain, with results achieved via subtracting the dilution heats from those measured in the presence of the WW domain.

On to “PPPPP [control pentapeptide PPPPP, reference compound]”, for which the “binding to Fe65-WW (in words)” value was “no binding between the Fe65-WW and the pentapeptide could be observed”.
